Patent US20070254910A1, “CHEMICAL COMPOUNDS” (priority 2004, published 2007)
Like-named read-outs stand apart in the source and are kept apart here.

Tested on: HIV
Assay: HOS HIV anti-infectivity assay (strain not stated)
Assay type: cell-based
Conditions: read-out: Activity Level
Method: Compounds were profiled against two HIV-1 viruses, the M-tropic (CCR5 utilizing) Ba-L strain and the T-tropic (CXCR4 utilizing) IIIB strain. Both viruses were propagated in human peripheral blood lymphocytes. Compounds were tested for there ability to block infection of the HOS cell line (expressing hCXCR4/hCCR5/hCD4/pHIV-LTR-luciferase) by either HIV-1 Ba-L or HIV-1 IIIB. Compound cytotoxicity was also examined in the absence of virus addition.
HOS cells (expressing hCXCR4/hCCR5/hCD4/pHIV-LTR-luciferase) were harvested and diluted in Dulbeccos modified Eagles media supplemented with 2% FCS and non-essential amino acid to a concentration of 60,000 cells/ml. The cells were plated into 96-well plates (100 ul per well) and the plates were placed in a tissue culture incubator (37° C.; 5% CO2/95% air) for a period of 24 h.
Subsequently, 50 ul of the desired drug solution (4 times the final concentration) was added to each well and the plates were returned to the tissue culture incubator (37° C.; 5% CO2/95% air) for 1 h. Following this incubation 50 ul of diluted virus was added to each well (approximately 2 million RLU per well of virus). The plates were returned to the tissue culture incubator (37° C.; 5% CO2/95% air) and were incubated for a further 96 h.
Following this incubation the endpoint for the virally infected cultures was quantified following addition of Steady-Glo Luciferase assay system reagent (Promega, Madison, Wis.). Cell viability or non-infected cultures was measured using a CellTiter-Glo luminescent cell viability assay system (Promega, Madison, Wis.). All luminescent readouts are performed on a Topcount luminescence detector (Packard, Meridien, Conn.).

[1] = Human immunodeficiency virus 1, HOS HIV anti-infectivity assay

In the case of `CN[C@@H]1CCN(c2cccc3nc(CN(C)[C@H]4CCCc5cccnc54)c(CO)n23)C1` [Example 63, [5-[(3R)-3-(Methylamino)-1-pyrrolidinyl]-2-({methyl[(8S)-5,6,7,8-tetrahydro-8-quinolinyl]amino}methyl)imidazo[1,2-a]pyridin-3-yl]methanol], the IC50 [1] is reported as < 100 nM.
`CCN(Cc1nc2cccc(N3CC[C@@H](N(C)C)C3)n2c1CO)[C@H]1CCCc2cccnc21` [Example 66, [5-[(3R)-3-(Dimethylamino)-1-pyrrolidinyl]-2-({ethyl[(8S)-5,6,7,8-tetrahydro-8-quinolinyl]amino}methyl)imidazo[1,2-a]pyridin-3-yl]methanol] was tested, and the IC50 [1] was < 100 nM.
`CCCN(Cc1nc2cccc(N3CC[C@@H](N(C)C)C3)n2c1CO)[C@H]1CCCc2cccnc21` [Example 68, [5-[(3R)-3-(Dimethylamino)-1-pyrrolidinyl]-2-({propyl[(8S)-5,6,7,8-tetrahydro-8-quinolinyl]amino}methyl)imidazo[1,2-a]pyridin-3-yl]methanol] was tested, and the IC50 [1] was < 100 nM.
For `CN1CCN(c2cccc3nc(CN(C)C4CCCc5cccnc54)c(C(O)C(F)(F)F)n23)CC1` (centres unmarked) [Example 89B, 2,2,2-Trifluoro-1-(5-(4-methyl-1-piperazinyl)-2-{[methyl(5,6,7,8-tetrahydro-8-quinolinyl)amino]methyl}imidazo[1,2-a]pyridin-3-yl)ethanol], the IC50 (HOS HIV anti-infectivity assay) was 100 to 500 nM.
`CN(C)CCN(C)c1cccc2nc(CN(C)[C@H]3CCCc4cccnc43)c(CO)n12` [Example 28, [5-[[2-(Dimethylamino)ethyl](methyl)amino]-2-({methyl[(8S)-5,6,7,8-tetrahydro-8-quinolinyl]amino}methyl)imidazo[1,2-a]pyridin-3-yl]methanol] was tested, and the IC50 [1] was < 100 nM.
For `CN(Cc1nc2cccc(N3CCN4CCCC4C3)n2c1CO)[C@H]1CCCc2cccnc21` (stereo partly drawn) [Example 44, [5-(Hexahydropyrrolo[1,2-a]pyrazin-2(1H)-yl)-2-({methyl[(8S)-5,6,7,8-tetrahydro-8-quinolinyl]amino}methyl)imidazo[1,2-a]pyridin-3-yl]methanol], the IC50 [1] was < 100 nM.
For `CC(c1nc2cccc(N3CCN(C)CC3)n2c1CO)N(C)[C@H]1CCCc2cccnc21` (stereo partly drawn) [Example 88, [5-(4-Methyl-1-piperazinyl)-2-(1-{methyl[(8S)-5,6,7,8-tetrahydro-8-quinolinyl]amino}ethyl)imidazo[1,2-a]pyridin-3-yl]methanol], the IC50 [1] was < 100 nM.
`CN1CCN(c2cccc3nc(CN(C)C4CCCc5cccnc54)c(CO)n23)CC1` (centres unmarked) [Example 20, (5-(4-Methyl-1-piperazinyl)-2-{[methyl(5,6,7,8-tetrahydro-8-quinolinyl)amino]methyl}imidazo[1,2-a]pyridin-3-yl)methanol] was tested, and the IC50 [1] was < 100 nM.
For `CCN(Cc1nc2cccc(N3CCN(C)CC3)n2c1CO)[C@H]1CCCc2cccnc21` [Example 32, [2-({Ethyl[(8S)-5,6,7,8-tetrahydro-8-quinolinyl]amino}methyl)-5-(4-methyl-1-piperazinyl)imidazo[1,2-a]pyridin-3-yl]methanol], the IC50 [1] was < 100 nM.
`CC(C)N(Cc1nc2cccc(N3CCN(C)CC3)n2c1CO)[C@H]1CCCc2cccnc21` [Example 34, [2-({(1-Methylethyl)[(8S)-5,6,7,8-tetrahydro-8-quinolinyl]amino}methyl)-5-(4-methyl-1-piperazinyl)imidazo[1,2-a]pyridin-3-yl]methanol] was tested, and the IC50 [1] was < 100 nM.
`CN1CCN(c2cccc3nc(CN(C)[C@H]4CCCc5cccnc54)c(CO)n23)CC1` [Example 25, [5-(4-Methyl-1-piperazinyl)-2-({methyl[(8S)-5,6,7,8-tetrahydro-8-quinolinyl]amino}methyl)imidazo[1,2-a]pyridin-3-yl]methanol] was tested, and the IC50 [1] was < 100 nM.
In the case of `CCCN(Cc1nc2cccc(N3CCN(C)CC3)n2c1CO)[C@H]1CCCc2cccnc21` [Example 36, [5-(4-Methyl-1-piperazinyl)-2-({propyl[(8S)-5,6,7,8-tetrahydro-8-quinolinyl]amino}methyl)imidazo[1,2-a]pyridin-3-yl]methanol], the IC50 [1] is reported as < 100 nM.
For `CN(Cc1nc2cccc(N3CCC(N)CC3)n2c1CO)[C@H]1CCCc2cccnc21` [Example 76, [5-(4-Amino-1-piperidinyl)-2-({methyl[(8S)-5,6,7,8-tetrahydro-8-quinolinyl]amino}methyl)imidazo[1,2-a]pyridin-3-yl]methanol], the IC50 [1] was < 100 nM.
`CN1CCN(c2cccc3nc(CN(Cc4ccc(C(F)(F)F)cc4)[C@H]4CCCc5cccnc54)c(CO)n23)CC1` [Example 42, {5-(4-Methyl-1-piperazinyl)-2-[((8S)-5,6,7,8-tetrahydro-8-quinolinyl{[4-(trifluoromethyl)phenyl]methyl}amino)methyl]imidazo[1,2-a]pyridin-3-yl}methanol] was tested, and the IC50 [1] was < 100 nM.
